# Experimental data reported in patent US7530196B2, “Method for improving plant growth by application of a mixture of sulfur and complexing agent” (BASF Aktiengesellschaft, priority 2001, dated 2009).
# Tests used:
# Chinese leaves [1] = assay: Container experiment with Chinese leaves: growth (fresh-matter yield); assay type: in vivo, Chinese leaves "Kasumi"
# Description: (§1) Experimental Set-Up: Container Experiment With Chinese Leaves • 1. without addition • 2. 8 mg S/pot/week • 3. 80 mg S/pot/week • 4. 2 mg sodium lignosulfonate/pot/week • 5. 20 mg sodium lignosulfonate/pot/week • 6. 10 mg mixture of 80% by weight sulfur and 20% by weight sodium lignosulfonate/pot/week • 7. 100 mg mixture of 80% by weight sulfur and 20% by weight sodium lignosulfonate/pot/week Method: Plant Species: Chinese leaves “Kasumi”, sown into P-soil in multi-cell trays, age at pricking out time into experimental containers: approx. 14 days; the same containers are planted twice. Soil from Ruchheim, loam, pH 7.4, mixed with quartz sand (for retaining the structural stability during the container experiment). PE pots/15, approx. 1 l substrate (1.5 kg). Greenhouse, 25° C., supplementary lighting suitable for assimilation. Plant food 15+10+15+2 with trace elements without chelating agent (LAB 2411D; 0.5 g/container/week). Using a syringe and cannula into the soil at a depth of approx. 1 cm to simulate trickle irrigation conditions. The additions were applied in one application weekly via the cannula. 10 mg of mixture M according to the invention/container/week correspond to approx. 5 kg/ha.
# Chinese leaves [2] = assay: Container experiment with Chinese leaves: mineral contents in leaves; assay type: in vivo, Chinese leaves "Kasumi"; conditions: plant batch 1; for Iron content in ppm / Manganese content in ppm: Table 3
# Description: as §1
# [3] = plant batch 1, S 8 mg, lignosulfonate 2 mg, mixture M 10 mg per pot/week
# [4] = plant batch 1, S 80 mg, lignosulfonate 20 mg, mixture M 100 mg per pot/week
# [5] = plant batch 2, S 8 mg, lignosulfonate 2 mg, mixture M 10 mg per pot/week
# [6] = plant batch 2, S 80 mg, lignosulfonate 20 mg, mixture M 100 mg per pot/week
# [7] = S 8 mg, lignosulfonate 2 mg, mixture M 10 mg
# [8] = S 80 mg, lignosulfonate 20 mg, mixture M 100 mg
smiles,measurement,setting,value
"S1SSSSSSS1 [Sulfur, sulfur]",Effect on growth (in words),"Chinese leaves [1]; increasing additions, in particular in the first batch of plants",no growth-promoting effect
same,Fresh-matter yield,Chinese leaves [1]; [3],106 g/container
same,Fresh-matter yield % of untreated,Chinese leaves [1]; [3],97 % of untreated
same,Fresh-matter yield,Chinese leaves [1]; [4],108 g/container
same,Fresh-matter yield % of untreated,Chinese leaves [1]; [4],99 % of untreated
same,Fresh-matter yield,Chinese leaves [1]; [5],67 g/container
same,Fresh-matter yield % of untreated,Chinese leaves [1]; [5],96 % of untreated
same,Fresh-matter yield,Chinese leaves [1]; [6],68 g/container
same,Fresh-matter yield % of untreated,Chinese leaves [1]; [6],97 % of untreated
same,Iron content in ppm,Chinese leaves [2]; [7],140 ppm
same,Manganese content in ppm,Chinese leaves [2]; [7],66 ppm
same,Iron content in ppm,Chinese leaves [2]; [8],174 ppm
same,Manganese content in ppm,Chinese leaves [2]; [8],67 ppm
same,Fe content in leaves,Chinese leaves [2]; [7],140 ppm in DM
same,Iron content in % of untreated,Chinese leaves [2]; [7],127 % of untreated
same,K content in leaves,Chinese leaves [2]; [7],5.23 % in DM
same,Manganese content in % of untreated,Chinese leaves [2]; [7],101 % of untreated
same,Mg content in leaves,Chinese leaves [2]; [7],0.24 % in DM
same,Mn content in leaves,Chinese leaves [2]; [7],66 ppm in DM
same,N content in leaves,Chinese leaves [2]; [7],3.57 % in DM
same,P content in leaves,Chinese leaves [2]; [7],0.46 % in DM
same,Fe content in leaves,Chinese leaves [2]; [8],174 ppm in DM
same,Iron content in % of untreated,Chinese leaves [2]; [8],158 % of untreated
same,K content in leaves,Chinese leaves [2]; [8],5.57 % in DM
same,Manganese content in % of untreated,Chinese leaves [2]; [8],103 % of untreated
same,Mg content in leaves,Chinese leaves [2]; [8],0.25 % in DM
same,Mn content in leaves,Chinese leaves [2]; [8],67 ppm in DM
same,N content in leaves,Chinese leaves [2]; [8],3.86 % in DM
same,P content in leaves,Chinese leaves [2]; [8],0.50 % in DM
